The term EC50 denotes the concentration at which the effect is half-maximal.

From patent publication US9339486B2, “Heterocyclic modulators of cannabinoid receptors” (THE CLEVELAND CLINIC FOUNDATION, priority 2008, dated 2016) come the findings set out here.

One data set has as its target rCB2 receptors (Rattus norvegicus (Rat), UniProt Q9QZN9). Briefly: cAMP activation assay rCB2. Format: cell-based. The protocol:
The compound of Example 3 was tested for agonist activity at the rat CB1 (rCB1) and rCB2 receptors, at eight concentrations, in duplicate: 10, 3, 1, 0.3, 0.1, 0.03, 0.01 and 0.001 μM. Recombinant cells grown to mid-log phase in culture media without antibiotics were detached with PBS containing 5 mM EDTA, centrifuged and resuspended in assay buffer at a concentration of 16.6×10^5 cells/ml. The test was performed in 96 well plates. For testing, 12 μl of cells ([…]) were mixed with 12 μl of agonist at increasing concentrations. […] The plates were then incubated for 30 min at room temperature. After addition of the lysis buffer, cAMP concentrations were estimated, according to the manufacturer specification, with the HTRF kit from Cis-Bio International (Catalogue number 62AM2PEB).

The target of data set [1] is T1, CB2 (Homo sapiens (Human), UniProt P34972). Briefly: CB2 Binding Assay ([3H]WIN 55212-2, cell membrane homogenates). The protocol: (§1) Cell membrane homogenates (15 μg protein) were incubated for 120 min at 37° C. with 0.8 nM [3H]WIN 55212-2 (the reference standard [Munro, 1993 #1321]) in the absence or presence of the test compound in a buffer containing 50 mM HEPES/Tris HCL (pH 7.4), 5 mM MgCl2, 2.5 mM EGTA, and 0.1% BSA. Nonspecific binding was determined in the presence of 10 μM WIN 55212-2. After being incubated, the samples were filtered rapidly under vacuum through glass fiber filters (GF/B; Packard) presoaked with 0.3% PEI and rinsed several times with ice-cold buffer containing 50 mM Tris HCl (pH 7.4) and 0.5% BSA using a 96-sample cell harvester (Unifilter; Packard). The filters were dried then counted for radioactivity in a scintillation counter (Topcount; Packard) using a scintillation cocktail (Microscint 0; Packard). The results were expressed as a percentage of the inhibition of the control radioligand-specific binding. The reference standard compounds were tested in each experiment at several concentrations to obtain a competition curve from which its IC50 was calculated.

Data set [2] addresses T1, CB2. Description: CB1/CB2 Functional Assay (GTPγ[35S]), CB2 membranes. The data set is classed as biochemical. The protocol: (§2) A dose response curve was generated at eight concentrations in duplicate on CB1 and CB2 in light of reference agonists. The reference agonists for cannabinoid receptors was CP55,940. See FIGS. 1A, 1B, 2A, 2B, 3A and 3B.
(§3) Membranes (CB1, ES-110-MG or CB2, ES-111-MG) were mixed with GDP (volume:volume) and incubated for at least 15 min on ice. In parallel, GTPγ[^35S] were mixed with the beads (volume:volume) just before starting the reaction. The following reagents were successively added in the wells of an Optiplate: 50 μl of ligand, 20 μl of the membranes:GDP mix, 10 μl of assay buffer for agonist testing and 20 μl of the GTPγ[^35S]: beads mix. The plates were covered with a topseal, shaken on an orbital shaker for 2 min, and then incubated between 30 to 60 min. at room temperature. Then the plates were centrifuged for 10 min at 2000 rpm, incubated at room temperature between 1 to 4 hours and counted for 1 min with a PerkinElmer TopCount reader.

Data set [3] concerns the target T2, CB1 (Homo sapiens (Human), UniProt P21554). Description: CB1 Binding Assay ([3H]CP 55940, cell membrane homogenates). The protocol: as §1, with “After” for “Cell membrane homogenates (15 μg protein) were incubated for 120 min at 37° C. with 0.8 nM [3H]WIN 55212-2 (the reference standard [Munro, 1993 #1321]) in the absence or presence of the test compound in a buffer containing 50 mM HEPES/Tris HCL (pH 7.4), 5 mM MgCl2, 2.5 mM EGTA, and 0.1% BSA. Nonspecific binding was determined in the presence of 10 μM WIN 55212-2. After”

The target in data set [4] is T2, CB1. Description: CB1/CB2 Functional Assay (GTPγ[35S]), CB1 membranes. The data set is classed as biochemical. The protocol: as §2, §3
The test system of data set [5] is paclitaxel-induced neuropathy. Briefly: Prevention of neuropathy induced by paclitaxel. The data set is classed as in vivo, rat. As to conditions: paclitaxel model. The procedure:
A mixture of saline and CREMOPHOR® ELP 10% was used as vehicle for paclitaxel. It was injected at a concentration of 1.0 mg/kg intraperitoneally to the chemotherapy-treated group of rats on 4 consecutive days for a final cumulative dose of 4 mg/kg to 18 rats.
Paw withdrawal thresholds were determined daily in both hind paws of each animal using calibrated von Frey monofilaments according to an up-down procedure. A series of von Frey filaments with exponentially incremental degrees of stiffness (0.4, 0.7, 1.2, 2.0, 3.6, 5.5, 8.5, and 15.1 g) was used to measure the 50% threshold for both hindpaw withdrawal in awake, unrestrained rats. Chaplan, S. R., Quantitative assessment of tactile allodynia in the rat paw, Journal of Neuroscience Methods, 1994, 53:55-63. Brisk paw withdrawal from the pressure of a filament gently bent against the plantar surface of the paw was defined as a positive response, and absence of withdrawal within 6 sec was considered a negative response. The series of filaments touched the hindpaw in sequential ascending or descending order of stiffness until the threshold of response was crossed (allowing about 10 sec between each increment). Each time the threshold was crossed, the direction of stimulus presentation was reversed and the procedure resumed. Four responses were collected after the first threshold detection, and the 50% withdrawal thresholds was interpolated. In cases in which the response thresholds fall outside the range of detection, 15.1 and 0.25 g were assigned for continuous negative or positive responses, respectively, to the limits of stimulation. FIG. 17 and FIG. 18 show results from these experiments and that peripheral neuropathy started to develop within a few days. FIG. 18 reflects that a plateau was reached by the 10th day.
Group 1 of rats received paclitaxel for four days, as described immediately above in subpart (A) titled “Paclitaxel-induced Neuropathy.” In group 2, a dose of 15 mg/kg of the compound of Example 3, injected intraperitoneally was administered 30 minutes prior to the administration of paclitaxel. In group 3, vehicle of the compound of Example 3 was administered 30 min prior to the administration of paclitaxel. Paw withdrawal thresholds were determined daily in both hind paws of each animal using calibrated von Frey monofilaments according to an up-down procedure as described immediately above in subpart (A) titled “Paclitaxel-induced Neuropathy.” The results are shown in FIG. 17.
FIGS. 19A and 19B show results from an experiment in which three groups of rats were administered 0.25 mL of the compound of Example 3 or the vehicle, a mixture of NMP, propylene glycol, chromophore ELP (25%, 25%, 10%) in sterile water 30 min prior to the administration of paclitaxel. Two of the three experimental groups continued to receive either the vehicle or the compound of Example 3 daily for 11 more days.

A further data set deals with naïve rats. Description: Open field chamber testing. The data set is classed as in vivo, rat. As to conditions: i.p.: Example 3 15 mg/kg, WIN 55,212-2 7 mg/kg, haloperidol 1 mg/kg. The procedure:
The automated open-field chamber (Med Associates ENV-515 Test Environment, St. Albans, Vt.) 43.2×43.2×30.5 cm (L×W×H) equipped with three pairs of 16 infrared arrays that continually monitored the animal's movement was used to determine potential CNS effects of the compound of Example 3, WIN55212-2, and haloperidol in naïve rats. Rats were individually tested 15 min after i.p. drug administration. The infrared beams were set 2.5 cm apart horizontally and at a height of 3 cm above the floor, with the rearing array set at 12 cm from the floor. The area in the box was divided into 4 equal quadrants (zones), with data collected within each quadrant and across quadrants (zone entries). An ambulatory movement was defined as a motion of at least 5 cm and was coded by quadrant. Vertical movements were counted when the rat moved vertically a minimum of 12 cm from the floor. Zone entries were defined as an entry into a zone (from another zone). Entry into a zone was counted when the rat was far enough into the zone to break 2 sets of photoelectric beams for the new zone beams during an ambulatory movement.

Setting [6] is: CB2, test concentration 1.0E−05 (MD).
Setting [7] is: CB1, test concentration 1.0E−05 (MD).

The structures appear in SMILES notation.

T2 sequence (P21554 whole entry): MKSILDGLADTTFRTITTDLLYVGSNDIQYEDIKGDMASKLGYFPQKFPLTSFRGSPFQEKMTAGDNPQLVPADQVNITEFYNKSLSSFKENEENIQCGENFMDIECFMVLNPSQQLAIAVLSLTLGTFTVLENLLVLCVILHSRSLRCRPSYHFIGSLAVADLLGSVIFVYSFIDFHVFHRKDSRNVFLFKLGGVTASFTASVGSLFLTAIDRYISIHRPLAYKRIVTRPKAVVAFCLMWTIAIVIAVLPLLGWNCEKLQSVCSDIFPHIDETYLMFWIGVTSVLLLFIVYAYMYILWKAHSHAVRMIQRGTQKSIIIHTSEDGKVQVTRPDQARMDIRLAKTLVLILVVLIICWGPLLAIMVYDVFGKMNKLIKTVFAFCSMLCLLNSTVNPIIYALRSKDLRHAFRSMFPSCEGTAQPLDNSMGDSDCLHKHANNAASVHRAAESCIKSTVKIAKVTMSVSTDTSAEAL
T1 sequence (P34972 whole entry): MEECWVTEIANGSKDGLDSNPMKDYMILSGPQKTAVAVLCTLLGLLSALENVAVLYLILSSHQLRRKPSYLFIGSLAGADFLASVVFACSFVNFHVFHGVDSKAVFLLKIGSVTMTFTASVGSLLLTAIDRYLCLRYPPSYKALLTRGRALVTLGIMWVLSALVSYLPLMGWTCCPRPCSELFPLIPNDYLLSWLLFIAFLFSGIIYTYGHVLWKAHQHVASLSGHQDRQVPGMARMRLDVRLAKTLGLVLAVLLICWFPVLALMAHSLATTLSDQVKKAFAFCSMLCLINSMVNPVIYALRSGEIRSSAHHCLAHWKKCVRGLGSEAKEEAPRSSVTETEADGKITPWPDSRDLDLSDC

As to `CCCCCCC(C)(C)c1ccc([C@@H]2C[C@H](O)CC[C@H]2CCCO)c(O)c1` [CP55,940, reference compound], the EC50 at rCB2 receptors came out at 1.13 ± 0.13 nM.
In the case of `CC1(Cc2ccccc2)COc2ccc(C(=O)NC3CCCCC3)cc21` (stereo not drawn) [Example 5, 3-benzyl-3-methyl-2,3-dihydrobenzofuran-5-carboxylic acid-cyclohexylamide], the entries for the “% Inhibition of Control Specific Binding” value at CB2 [1] (setting [6]) and on CB1 [3] (setting [7]) were 72% and 43%, respectively. Further, the “% of Control Specific Binding Mean” value was found to be 27.5% on CB2 [1] (setting [6]) and 57.2% at CB1 [3] (setting [7]). Further, the “% of Control Specific Binding 1st” value worked out at 29.9% at CB2 [1] (CB2, test concentration 1.0E−05 (MD), first replicate) and 53.5% on CB1 [3] (CB1, test concentration 1.0E−05 (MD), first replicate). The “% of Control Specific Binding 2nd” value turned out to be 25.1% at CB2 [1] (CB2, test concentration 1.0E−05 (MD), second replicate) and 60.8% at CB1 [3] (CB1, test concentration 1.0E−05 (MD), second replicate). Also, the “% Inhibition of Control Specific Binding CB2” value on CB2 [1] (as repeated in Table 4) is given as 72%. Further, the “Compound Function” value on CB2 [2] is recorded as “Agonist”; on CB1 [4], “Inverse”. Besides, the EC50 on CB2 [2] (read-out: EC50 (nM) for GTP Binding) was 409 nM. Further, the entries for the “% Activation Average” value at CB2 [2] (reference agonist CP55,940) and at CB1 [4] (reference agonist CP55,940) were 55.71% and −36.02%, respectively. Besides, the “% Inhibition of Control Specific Binding CB1” value on CB1 [3] (as repeated in Table 3) is 43%.
On to `COc1ccc2[nH]cc(CCNC(C)=O)c2c1` [Melatonin, reference compound], for which, in data set [5], the protection against neuropathy entry is reported as “did not provide any protection”.
For the compound `Cc1c(C(=O)c2cccc3ccccc23)c2cccc3c2n1[C@H](CN1CCOCC1)CO3` [WIN 55,212-2, reference compound], the “exploratory behavior in the open field (distance traveled, ambulatory time, rearing, zone entries)” value in the data set with naïve rats is on record as “decreased exploratory behavior”.
